Molecular target: T1, FastPETase (mutant derived from IsPETase) (Pseudideonella sakaiensis, UniProt A0A0K8P6T7, S121E/D186H/R224Q/N233K/R280A, form not given)
T1 construct: gene ISF6_4831; engineered variant FastPETase; construct not described in the main text
Assay: p-nitrophenol release at […] nm, Michaelis-Menten nonlinear fit
Assay type: biochemical
Conditions: 10 mM potassium phosphate pH 8.0 (stock buffer), 50 °C, 3 min, 0.5 µg/mL enzyme, 0.2-1.8 mM pNPB

T1 sequence (A0A0K8P6T7 28-290 S121E/D186H/R224Q/N233K/R280A, form open): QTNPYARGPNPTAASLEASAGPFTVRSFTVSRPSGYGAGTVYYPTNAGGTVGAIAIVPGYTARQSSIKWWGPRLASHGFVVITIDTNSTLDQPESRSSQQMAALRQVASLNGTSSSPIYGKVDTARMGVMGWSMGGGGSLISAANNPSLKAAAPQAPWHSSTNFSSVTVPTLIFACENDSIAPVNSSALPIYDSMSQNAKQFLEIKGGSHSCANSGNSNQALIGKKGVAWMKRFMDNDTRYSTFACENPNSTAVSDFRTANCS

- Km: 1570 ± 416 µM
SMILES: CCCC(=O)Oc1ccc([N+](=O)[O-])cc1 [p-nitrophenyl butyrate]

Source: article PMC12228687, “Harnessing protein language model for structure-based discovery of highly efficient and robust PET hydrolases” (Nature Communications, 2025)
